From the NIST ThermoML archive (doi:10.1021/acs.jced.7b00236)
“And” between values parts separate entries of the source, which are not always exact repeats. Identical values can stand only once. Numbers after ± are expanded uncertainties.

Conditions: Liquid, Ebulliometric method (Recirculating still)

SMILES	vapor or sublimation pressure (303.15 K)	vapor or sublimation pressure (308.15 K)	vapor or sublimation pressure (313.15 K)	vapor or sublimation pressure (318.15 K)	vapor or sublimation pressure (323.15 K)
CC(C)CC(C)(C)C [2,2,4-trimethylpentane]	8.33 ± 0.14 kPa	10.44 ± 0.14 kPa	12.97 ± 0.14 kPa	15.98 ± 0.15 kPa	19.54 ± 0.15 kPa
CCOC(=O)OCC [diethyl carbonate]	1.95 ± 0.14 kPa and 1.99 ± 0.14 kPa	2.61 ± 0.14 kPa and 2.65 ± 0.14 kPa	3.43 ± 0.14 kPa and 3.45 ± 0.14 kPa	4.46 ± 0.14 kPa and 4.51 ± 0.14 kPa	5.75 ± 0.14 kPa and 5.83 ± 0.14 kPa
CCCCCCC [heptane]	7.79 ± 0.14 kPa	9.85 ± 0.14 kPa	12.34 ± 0.14 kPa	15.33 ± 0.15 kPa	18.9 ± 0.15 kPa
Cc1ccccc1 [toluene]	4.87 ± 0.14 kPa	6.32 ± 0.14 kPa	7.78 ± 0.14 kPa	9.89 ± 0.14 kPa	12.27 ± 0.14 kPa
